Where two headings read alike, the source gives them in different places.
Experiments:
Type in all cases: in vivo
[1] = tested on: giant foxtail (Setaria faberii); test: Test A preemergence; conditions: Setaria faberi, pre-emergence, 240 h, preemergence, 0 to 100 scale where 0 is no effect and 100 is complete control, read-out: Foxtail, Giant plant response rating; for pest or weed control at 125 g/ha: 125 g ai/ha, visual injury rating, approximately 10 d; for pest or weed control at 500 g/ha: 500 g ai/ha
In short: (§1)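 Seeds sprayed preemergence with a directed soil spray, or plants at 2 to 10 cm height and one- to two-leaf stage sprayed postemergence, with test chemicals in a non-phytotoxic solvent mixture containing surfactant, in loam soil–sand blend. Injury rated visually against untreated controls after about 10 d in greenhouse, 0 (no effect) to 100 (complete control).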

[2] = tested on: pigweed (Amaranthus retroflexus); test: Test A preemergence; conditions: Amaranthus retroflexus, pre-emergence, 240 h, preemergence, 0 to 100 scale where 0 is no effect and 100 is complete control, read-out: Pigweed plant response rating; for pest or weed control at 125 g/ha: 125 g ai/ha, visual injury rating, approximately 10 d; for pest or weed control at 500 g/ha: 500 g ai/ha
[3] = tested on: ryegrass, Italian (Italian ryegrass, Lolium multiflorum); test: Test A preemergence; conditions: Lolium multiflorum, pre-emergence, 240 h, preemergence, 0 to 100 scale where 0 is no effect and 100 is complete control, read-out: Ryegrass, Italian plant response rating; for pest or weed control at 125 g/ha: 125 g ai/ha, visual injury rating, approximately 10 d; for pest or weed control at 500 g/ha: 500 g ai/ha
In short: as §1

[4] = tested on: ragweed (common ragweed, Ambrosia elatior); test: Test A preemergence; conditions: Ambrosia artemisiifolia, pre-emergence, 240 h, preemergence, 0 to 100 scale where 0 is no effect and 100 is complete control, read-out: Ragweed plant response rating; for pest or weed control at 125 g/ha: 125 g ai/ha, visual injury rating, approximately 10 d; for pest or weed control at 500 g/ha: 500 g ai/ha
In short: as §1

[5] = tested on: barnyardgrass (Echinochloa crus-galli); test: Test A preemergence; conditions: Echinochloa crus-galli, pre-emergence, 240 h, preemergence, 0 to 100 scale where 0 is no effect and 100 is complete control, read-out: Barnyardgrass plant response rating; for pest or weed control at 125 g/ha: 125 g ai/ha, visual injury rating, approximately 10 d; for pest or weed control at 500 g/ha: 500 g ai/ha
In short: as §1

Kochia (Kochia scoparia) = test: Test A preemergence; conditions: Bassia scoparia, pre-emergence, 240 h, preemergence, 0 to 100 scale where 0 is no effect and 100 is complete control, read-out: Kochia plant response rating; for pest or weed control at 125 g/ha: 125 g ai/ha, visual injury rating, approximately 10 d; for pest or weed control at 500 g/ha: 500 g ai/ha
In short: as §1

[6] = tested on: ducksalad (Heteranthera limosa); test: Test B flooded paddy test; conditions: Heteranthera limosa, 250 g ai/ha, Flood; 0 to 100 scale where 0 is no effect and 100 is complete control; read-out: Ducksalad plant response rating
In short: (§2)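 Plants at 2-leaf stage flooded to 3 cm above soil, with compounds applied directly to paddy water and that depth maintained. Plants kept in greenhouse 13–15 d. Visual rating versus controls on a 0 (no effect) to 100 (complete control) scale.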

[7] = tested on: sedge, umbrella (small-flower umbrella sedge, Cyperus difformis); test: Test B flooded paddy test; conditions: Cyperus difformis, 250 g ai/ha, Flood; 0 to 100 scale where 0 is no effect and 100 is complete control; read-out: Sedge, Umbrella plant response rating
In short: as §2

[8] = tested on: barnyardgrass (Echinochloa crus-galli); test: Test B flooded paddy test; conditions: Echinochloa crus-galli, 250 g ai/ha, Flood; 0 to 100 scale where 0 is no effect and 100 is complete control; read-out: Barnyardgrass plant response rating
In short: as §2

rice (Oryra sativa) = test: Test B flooded paddy test; conditions: Oryza sativa, 250 g ai/ha, Flood; 0 to 100 scale where 0 is no effect and 100 is complete control; read-out: Rice plant response rating
In short: as §2

[9] = tested on: pigweed (Amaranthus retroflexus); test: Test A postemergence; conditions: Amaranthus retroflexus, post-emergence, 240 h; for pest or weed control at 125 g/ha: 125 g ai/ha, read-out: Pigweed plant response rating (0 to 100 scale); for pest or weed control at 500 g/ha: 500 g ai/ha, visual injury, 0 to 100 scale (0 no effect, 100 complete control), approx. 10 d, read-out: Plant response rating, Pigweed
In short: as §1

[10] = tested on: ryegrass, Italian (Italian ryegrass, Lolium multiflorum); test: Test A postemergence; conditions: Lolium multiflorum, post-emergence, 240 h; for pest or weed control at 125 g/ha: 125 g ai/ha, read-out: Ryegrass, Italian plant response rating (0 to 100 scale); for pest or weed control at 500 g/ha: 500 g ai/ha, visual injury, 0 to 100 scale (0 no effect, 100 complete control), approx. 10 d, read-out: Plant response rating, Ryegrass, Italian
In short: as §1

corn (Zea mays) = test: Test A postemergence; conditions: Zea mays, post-emergence, 240 h; for plant injury at 125 g/ha: 125 g ai/ha, read-out: Corn plant response rating (0 to 100 scale); for Corn plant response rating (crop injury, 0 = no effect, 100 = complete kill) at 500 g/ha: 500 g ai/ha, visual injury, 0 to 100 scale (0 no effect, 100 complete control), approx. 10 d
In short: as §1

[11] = tested on: wheat (Triticum aestivum); test: Test A postemergence; conditions: Triticum aestivum, post-emergence, 240 h, Postemergence; for plant injury at 500 g/ha: 500 g ai/ha, visual injury, 0 to 100 scale (0 no effect, 100 complete control), approx. 10 d, read-out: Plant response rating, Wheat; for plant injury at 125 g/ha: 125 g ai/ha, visual rating about 10 d after treatment, read-out: Wheat plant response rating (0 to 100 scale)
In short: as §1

[12] = postemergence, visual injury vs untreated controls after approx. 10 d, 0 = no effect, 100 = complete control
[13] = Postemergence, visual rating about 10 d after treatment

Row | Compound | pest or weed control at 125 g/ha [1] [%] | pest or weed control at 500 g/ha [1] [%] | pest or weed control at 125 g/ha [2] [%] | pest or weed control at 500 g/ha [2] [%] | pest or weed control at 125 g/ha [3] [%] | pest or weed control at 500 g/ha [3] [%] | pest or weed control at 125 g/ha [4] [%] | pest or weed control at 500 g/ha [4] [%] | pest or weed control at 125 g/ha [5] [%] | pest or weed control at 500 g/ha [5] [%] | pest or weed control at 125 g/ha (Kochia (Kochia scoparia)) [%] | pest or weed control at 500 g/ha (Kochia (Kochia scoparia)) [%] | pest or weed control at 250 g/ha [6] [%] | pest or weed control at 250 g/ha [7] [%] | pest or weed control at 250 g/ha [8] [%] | pest or weed control at 250 g/ha (rice (Oryra sativa)) [%] | pest or weed control at 500 g/ha ([9]; Postemergence) [%] | pest or weed control at 500 g/ha ([10]; Postemergence) [%] | Corn plant response rating (crop injury, 0 = no effect, 100 = complete kill) at 500 g/ha (corn (Zea mays); Postemergence) [%] | plant injury at 500 g/ha [11] [%] | also measured
1 | CN1C[C@H](c2ccc(C(F)F)cc2)[C@@H](C(=O)Nc2ccc(F)c(F)c2F)C1=O [Compound 1260] | 90 | 90 | 90 | 90 | 50 | 60 | 80 | 90 | 90 | 100 | 80 | 90 | 100 | 0 | 80 | 50 | 70 | 80 | 90 | 90 | pest or weed control at 125 g/ha [9, 12]: 50%; pest or weed control at 125 g/ha [10, 12]: 60%; plant injury at 125 g/ha (corn (Zea mays); [12]): 90%
2 | Cc1nc([C@H]2CN(C)C(=O)[C@@H]2C(=O)Nc2cccc(F)c2F)cs1 [Compound 1281] | 40 | 90 | 30 | 40 | 0 | 20 | 0 | 60 | 40 | 90 | 0 | 60 | 50 | 0 | 0 | 0 | 0 | 0 | 0 | 0 | pest or weed control at 125 g/ha [9, 13]: 0%; pest or weed control at 125 g/ha [10, 13]: 0%; plant injury at 125 g/ha (corn (Zea mays); [13]): 0%; plant injury at 125 g/ha [11]: 0%
3 | COc1cc([C@H]2CN(C)C(=O)[C@@H]2C(=O)Nc2ccccc2F)ccc1F [Compound 1298] | 90 | 90 | 0 | 0 | 0 | 0 | 0 | 20 | 80 | 90 | 0 | 80 | 80 | 0 | 50 | 15 | 0 | 0 | 0 | 20 | pest or weed control at 125 g/ha [9, 13]: 0%; pest or weed control at 125 g/ha [10, 13]: 0%; plant injury at 125 g/ha (corn (Zea mays); [13]): 0%; plant injury at 125 g/ha [11]: 0%
4 | COc1cc([C@H]2CN(C)C(=O)[C@@H]2C(=O)Nc2cccc(F)c2C)ccc1F [Compound 1300] | 90 | 90 | 0 | 40 | 0 | 60 | 0 | 80 | 90 | 90 | 0 | 60 | 80 | 0 | 65 | 25 | 0 | 30 | 60 | 50 | pest or weed control at 125 g/ha [9, 13]: 0%; pest or weed control at 125 g/ha [10, 13]: 0%; plant injury at 125 g/ha (corn (Zea mays); [13]): 20%; plant injury at 125 g/ha [11]: 0%

Source: patent US12077503B2, “Substituted cyclic amides and their use as herbicides” (FMC CORPORATION, priority 2015, dated 2024)
